25 molecules from patent publication US20100273772A1, “Bisaryl Alkynylamides as Negative Allosteric Modulators of Metabotropic Glutamate Receptor 5 (MGLUR5)” (Wyeth LLC, priority 2009, published 2010) can be followed below.

Molecules are shown by their SMILES.

Test [1] deals with T1, metabotropic glutamate receptor 5 (Rattus norvegicus, UniProt P31424).
T1 construct: expressed in transfected cells; host or cells: HEK-293
Kind of test: FLIPR Calcium 3 fluorescence-based functional assay of intracellular calcium, mGluR5 antagonist activity. It counts as cell-based. Particulars: inhibition of glutamate (EC90, ~50 uM) stimulated calcium levels, mGluR5 HEK-293 cells; read-out: mGluR5 FLIPR MP Antagonist DR IC50. An excerpt:
(§1) where [L]=concentration of free radioligand and Kd=dissociation constant of radioligand for the receptor. TITLE: Identification of metabotropic glutamate receptor 5 antagonists using a stable, sensitive fluorescence-based screening system PURPOSE: The aim of the research presented here was to develop a robust functional assay to measure changes in intracellular calcium, with the goal of identifying potent mGluR5 antagonists.
The FLIPR Calcium 3 Assay Kit is designed to work with many cell types, both adherent and non-adherent. Optimal cell conditions for the FLIPR Calcium 3 Assay Kit require the creation of a confluent cell monolayer before placing the plates in FLIPR or FlexStation. In general, we start with 50,000 mGluR5 HEK-293 cells/well for a 96-well plate. For adherent cells, seeding cells overnight with a plating volume of 100 μL/well worked for 96-well plates.
Remove cell plates from the incubator. Remove the supernatant medium. Add 180 ul of Loading Buffer to each well (for 96-well plates). HBSS buffer component B) pipette 100 mL of 10× Hank's Balanced Salt Solution and 20 mL of 1M Hepes buffer
Incubate cell plates for 1 hour at 37° C. and then keep the plates at room temperature until used.
After incubation, transfer the plates directly to FLIPR and begin the calcium assay as described in the FLIPR system manual. For a signal test, a starting average count of ˜10,000 is recommended. Recommended experimental setup parameters are as follows. Faster addition speeds can lead to better mixing of compounds and lower signal variance across the plate.
Test or reference compound is added to the 96-well plate (manually). […] Relative Fluorescence Units (RFUs) are recorded over a given time period (stated above) depending on the platform system used.
For antagonists, results are expressed as % inhibition of glutamate stimulated Calcium levels. IC50 values were calculated by Prism GraphPad using a 4-parameter logistic equation. IC50 values are calculated using GraphPad by fitting to a 1 site-model.
Background: A change in cytosolic calcium serves as a functional read-out for many receptors and channels.

The target of a further test is T2, rat mGluR5 receptor (Rattus norvegicus, UniProt P31424).
T2 construct: expressed in transfected cells; host or cells: HEK-293
Put plainly: [3H]-MPEP binding HEK-293 cell membranes expressing a rat mGluR5 receptor. The following applies: displacement of 4 nM [3H]-MPEP, HEK-293 cell membranes expressing rat mGluR5, 60 minute at room temperature; read-out: mGluR5 Ligand Binding DR Ki. The method, then:
TITLE: [^3H]-MPEP binding HEK-293 cell membranes expressing a rat mGluR5 receptor. PURPOSE: To identify high affinity compounds at the rat mGluR5 receptor based on their ability to displace the mGluR5 negative allosteric modulator, MPEP.
mGluR5 expressing HEK-293 cells are scraped off the plate, transferred to centrifuge tubes, and washed twice by centrifugation (2000 rpm for 10 min., 4° C.) in buffer (50 mM Tris pH 7.5). The resulting pellets are aliquoted and placed at −80° C. On the day of assay, the cells are thawed on ice, and resuspended in buffer. The binding assay is performed in a 96 well microtiter plate in a total volume of 250 μL. Non-specific binding is determined in the presence of 10 μM MPEP. Binding reaction includes a final radioligand [^3H]-MPEP concentration of 4 nM and 12-25 ug membrane protein per well. Following a 60 minute incubation at room temperature, the reaction is terminated by the addition of ice cold buffer and rapid filtration through a GF/B filter presoaked for 30 minutes in 0.5% PEI. Compounds are initially tested in a single point assay to determine percent inhibition at 10 μM. Subsequently, Ki values are determined for compounds defined to be active.
% inhibition and Ki values generated by GraphPad Prism and Excel Fit. IC50 values are calculated using GraphPad by fitting to a 1 or 2 site-binding model. Ki values are calculated from the apparent IC50 values using the Cheng-Prussof equation:
as §1

T1 sequence (P31424 21-1203): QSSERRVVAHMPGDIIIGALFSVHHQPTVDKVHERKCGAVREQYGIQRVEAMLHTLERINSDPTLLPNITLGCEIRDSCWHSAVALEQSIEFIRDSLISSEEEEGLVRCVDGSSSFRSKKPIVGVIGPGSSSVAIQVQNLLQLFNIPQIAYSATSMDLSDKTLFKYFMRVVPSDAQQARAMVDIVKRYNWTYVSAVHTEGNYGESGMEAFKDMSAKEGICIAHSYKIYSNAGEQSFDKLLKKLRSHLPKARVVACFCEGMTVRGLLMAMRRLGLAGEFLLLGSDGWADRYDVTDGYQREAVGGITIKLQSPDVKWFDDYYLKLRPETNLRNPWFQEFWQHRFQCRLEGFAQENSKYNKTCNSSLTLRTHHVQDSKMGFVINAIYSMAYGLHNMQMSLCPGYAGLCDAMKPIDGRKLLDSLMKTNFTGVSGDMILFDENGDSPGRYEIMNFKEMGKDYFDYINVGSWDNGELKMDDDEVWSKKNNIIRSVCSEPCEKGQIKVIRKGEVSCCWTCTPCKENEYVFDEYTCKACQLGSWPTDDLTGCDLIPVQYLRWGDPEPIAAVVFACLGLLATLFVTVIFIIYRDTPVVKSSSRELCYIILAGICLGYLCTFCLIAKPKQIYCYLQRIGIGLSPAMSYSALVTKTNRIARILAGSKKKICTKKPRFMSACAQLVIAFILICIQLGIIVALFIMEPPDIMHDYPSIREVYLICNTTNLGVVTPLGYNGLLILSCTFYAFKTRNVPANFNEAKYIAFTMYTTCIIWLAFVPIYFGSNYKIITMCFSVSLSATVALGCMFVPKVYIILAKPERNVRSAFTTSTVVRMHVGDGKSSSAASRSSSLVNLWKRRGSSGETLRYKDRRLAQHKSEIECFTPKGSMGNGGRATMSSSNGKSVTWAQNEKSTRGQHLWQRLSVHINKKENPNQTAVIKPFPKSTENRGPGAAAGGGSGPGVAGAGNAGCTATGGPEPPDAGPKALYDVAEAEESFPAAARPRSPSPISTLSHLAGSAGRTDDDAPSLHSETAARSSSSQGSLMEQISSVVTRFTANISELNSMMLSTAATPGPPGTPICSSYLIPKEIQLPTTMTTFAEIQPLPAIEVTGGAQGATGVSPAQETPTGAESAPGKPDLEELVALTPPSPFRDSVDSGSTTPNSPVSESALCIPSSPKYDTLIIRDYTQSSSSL
T2 sequence (P31424 21-1203): as above

For `COc1ccc(C(=O)N2CCc3c(OC)ccc(OC)c3C2)cc1C#Cc1ccccn1` [Example 19, 5,8-dimethoxy-2-[4-methoxy-3-(pyridin-2-ylethynyl)benzoyl]-1,2,3,4-tetrahydroisoquinoline], the IC50 (usually the concentration at which inhibition is half-maximal) in test [1] was determined as 30 nM. Also, the Ki (in general, a dissociation constant, usually derived from enzyme kinetics or from competition with a known ligand) on rat mGluR5 receptor is 6 nM.

In the case of `COc1ccc(C(=O)N2CCc3cc(OC)c(OC)cc3C2)cc1C#Cc1ccccn1` [Example 20, 6,7-dimethoxy-2-[4-methoxy-3-(pyridin-2-ylethynyl)benzoyl]-1,2,3,4-tetrahydroisoquinoline], the half-inhibitory concentration (IC50) in test [1] is 49 nM. For the same molecule, the Ki on rat mGluR5 receptor was found to be 36 nM.

As to `COc1ccc(C(=O)N2CCc3cccc(OC)c3C2)cc1C#Cc1ccccn1` [Example 21, 8-methoxy-2-[4-methoxy-3-(pyridin-2-ylethynyl)benzoyl]-1,2,3,4-tetrahydroisoquinoline], the IC50 in test [1] came out at 34 nM. For the same molecule, the Ki on rat mGluR5 receptor was found to be 3 nM.

As for `COc1ccc(C(=O)N2CCc3ccccc3C2c2cccs2)cc1C#Cc1ccccn1` (centres unmarked) [Example 22, 2-[4-methoxy-3-(pyridin-2-ylethynyl)benzoyl]-1-(2-thienyl)-1,2,3,4-tetrahydroisoquinoline], the half-maximal inhibitory concentration (IC50) in test [1] worked out at 220 nM. On rat mGluR5 receptor, the Ki came out at 22 nM.

For the molecule `COc1ccc(C(=O)N2Cc3ccccc3C(S(=O)(=O)N3CCS(=O)(=O)CC3)C2)cc1C#Cc1ccccn1` (centres unmarked) [Example 25, 4-[(1,1-dioxidothiomorpholin-4-yl)sulfonyl]-2-[4-methoxy-3-(pyridin-2-ylethynyl)benzoyl]-1,2,3,4-tetrahydroisoquinoline], in test [1], the IC50 came to 97 nM. Further, the Ki on rat mGluR5 receptor came to 70 nM.

Take `COc1ccc(C(=O)N2CCc3ccccc3C2c2ccccc2)cc1C#Cc1ccccn1` (centres unmarked) [Example 26, 2-[4-methoxy-3-(pyridin-2-ylethynyl)benzoyl]-1-phenyl-1,2,3,4-tetrahydroisoquinoline]: the IC50 in test [1] amounted to 169 nM. Further, the Ki on rat mGluR5 receptor was found to be 57 nM.

For the molecule `COc1ccc(C(=O)N2CCc3ccccc3C2c2ccco2)cc1C#Cc1ccccn1` (centres unmarked) [Example 27, 1-(2-furyl)-2-[4-methoxy-3-(pyridin-2-ylethynyl)benzoyl]-1,2,3,4-tetrahydroisoquinoline], the IC50 in test [1] stood at 40 nM. Further, on rat mGluR5 receptor, the Ki was 21 nM.

Consider `COc1ccc(C(=O)N2Cc3ccccc3C(CNc3ccccc3)C2)cc1C#Cc1ccccn1` (centres unmarked) [Example 29, N-({2-[4-methoxy-3-(pyridin-2-ylethynyl)benzoyl]-1,2,3,4-tetrahydroisoquinolin-4-yl}methyl)aniline], for which the IC50 in test [1] worked out at 447 nM. Further, on rat mGluR5 receptor, the Ki was 68 nM.

`COc1ccc2c(c1)CCN(C(=O)c1ccc(OC)c(C#Cc3ccccn3)c1)C2` [Example 31, 6-methoxy-2-[4-methoxy-3-(pyridin-2-ylethynyl)benzoyl]-1,2,3,4-tetrahydroisoquinoline]: the IC50 in test [1] came to 61 nM. For the same molecule, at rat mGluR5 receptor, the Ki came to 8 nM.

Consider `COc1ccc(C(=O)N2Cc3ccc(C)cc3C2)cc1C#Cc1ccccn1` [Example 32, 2-[4-methoxy-3-(pyridin-2-ylethynyl)benzoyl]-5-methylisoindoline], for which the IC50 in test [1] stood at 42 nM. For the same molecule, on rat mGluR5 receptor, the Ki came out at 3 nM.

`COc1ccc(C(=O)N2Cc3ccc(Br)cc3C2)cc1C#Cc1ccccn1` [Example 33, 5-bromo-2-[4-methoxy-3-(pyridin-2-ylethynyl)benzoyl]isoindoline]: the IC50 in test [1] was 173 nM. Besides, the Ki at rat mGluR5 receptor was 2 nM.

With `COc1ccc(C(=O)N2Cc3cc(Cl)c(Cl)cc3C2)cc1C#Cc1ccccn1` [Example 34, 5,6-dichloro-2-[4-methoxy-3-(pyridin-2-ylethynyl)benzoyl]isoindoline], in test [1], the IC50 was found to be 1450 nM. Also, the Ki on rat mGluR5 receptor turned out to be 17 nM.

As for `COc1ccc(C(=O)N2Cc3ccc([N+](=O)[O-])cc3C2)cc1C#Cc1ccccn1` [Example 35, 2-[4-methoxy-3-(pyridin-2-ylethynyl)benzoyl]-5-nitroisoindoline], the IC50 in test [1] is 61 nM. The Ki on rat mGluR5 receptor was found to be 23 nM.

In the case of `COc1ccc(C(=O)N2Cc3cccc(F)c3C2)cc1C#Cc1ccccn1` [Example 36, 4-fluoro-2-[4-methoxy-3-(pyridin-2-ylethynyl)benzoyl]isoindoline], the IC50 in test [1] stood at 25 nM. In addition, on rat mGluR5 receptor, the Ki stood at 6 nM.

In the case of `COc1ccc(C(=O)N2Cc3ccc(F)cc3C2)cc1C#Cc1ccccn1` [Example 37, 5-fluoro-2-[4-methoxy-3-(pyridin-2-ylethynyl)benzoyl]isoindoline], in test [1], the IC50 stood at 40 nM. Moreover, the Ki at rat mGluR5 receptor was 6 nM.

With `COc1ccc(C(=O)N2Cc3cccc(Cl)c3C2)cc1C#Cc1ccccn1` [Example 38, 4-chloro-2-[4-methoxy-3-(pyridin-2-ylethynyl)benzoyl]isoindoline], the IC50 in test [1] turned out to be 51 nM. Also, the Ki at rat mGluR5 receptor was 2 nM.

As for `COc1ccc(C(=O)N2CCc3ncccc3C2)cc1C#Cc1ccccn1` [Example 39, 6-[4-methoxy-3-(pyridin-2-ylethynyl)benzoyl]-5,6,7,8-tetrahydro-1,6-naphthyridine], the IC50 in test [1] was 26 nM. Further, the Ki on rat mGluR5 receptor worked out at 23 nM.

Take `COc1ccc(C(=O)N2CCc3ncc(C)cc3C2)cc1C#Cc1ccccn1` [Example 40, 6-[4-methoxy-3-(pyridin-2-ylethynyl)benzoyl]-3-methyl-5,6,7,8-tetrahydro-1,6-naphthyridine]: the IC50 in test [1] worked out at 21 nM. In addition, the Ki at rat mGluR5 receptor was 22 nM.

For the molecule `COc1ccc(C(=O)N2Cc3cnc(C)cc3C2)cc1C#Cc1ccccn1` [Example 41, 2-[4-methoxy-3-(pyridin-2-ylethynyl)benzoyl]-6-methyl-2,3-dihydro-1H-pyrrolo[3,4-c]pyridine], in test [1], the IC50 amounted to 12 nM. Besides, the Ki at rat mGluR5 receptor amounted to 26 nM.

`COc1ccc(C(=O)N2Cc3cnc(C)c(C)c3C2)cc1C#Cc1ccccn1` [Example 42, 2-[4-methoxy-3-(pyridin-2-ylethynyl)benzoyl]-6,7-dimethyl-2,3-dihydro-1H-pyrrolo[3,4-c]pyridine]: in test [1], the IC50 stood at 28 nM. For the same molecule, the Ki at rat mGluR5 receptor turned out to be 20 nM.

For `COc1ccc(C(=O)N2Cc3cnc(C)c(Cl)c3C2)cc1C#Cc1ccccn1` [Example 43, 7-chloro-2-[4-methoxy-3-(pyridin-2-ylethynyl)benzoyl]-6-methyl-2,3-dihydro-1H-pyrrolo[3,4-c]pyridine], in test [1], the IC50 amounted to 17 nM. Also, at rat mGluR5 receptor, the Ki amounted to 12 nM.

On to `COc1ccc(C(=O)N2Cc3cnc(C)c(N)c3C2)cc1C#Cc1ccccn1` [Example 44, 2-[4-methoxy-3-(pyridin-2-ylethynyl)benzoyl]-6-methyl-2,3-dihydro-1H-pyrrolo[3,4-c]pyridin-7-amine], for which the IC50 in test [1] was 14 nM. At rat mGluR5 receptor, the Ki was found to be 20 nM.

As to `COc1ccc(C(=O)N2Cc3cnc(C)c(OC)c3C2)cc1C#Cc1ccccn1` [Example 45, 7-methoxy-2-[4-methoxy-3-(pyridin-2-ylethynyl)benzoyl]-6-methyl-2,3-dihydro-1H-pyrrolo[3,4-c]pyridine], the IC50 in test [1] is 35 nM. In addition, the Ki on rat mGluR5 receptor amounted to 31 nM.

For `COc1ccc(C(=O)N2Cc3ccncc3C2)cc1C#Cc1ccccn1` [Example 46, 2-[4-methoxy-3-(pyridin-2-ylethynyl)benzoyl]-2,3-dihydro-1H-pyrrolo[3,4-c]pyridine], in test [1], the IC50 came out at 18 nM. Moreover, the Ki at rat mGluR5 receptor amounted to 31 nM.

Consider `COc1ccc(C(=O)N2CCc3oc(C)nc3C2)cc1C#Cc1ccccn1` [Example 47, 5-{[4-methoxy-3-(pyridin-2-ylethynyl)phenyl]carbonyl}-2-methyl-4,5,6,7-tetrahydro[1,3]oxazolo[4,5-c]pyridine], for which the IC50 in test [1] came out at 33 nM. Further, the Ki on rat mGluR5 receptor turned out to be 30 nM.
